Experimental data published in patent US20050059731A1, “Erythrosin-based antimicrobial photodynamic therapy compound and its use” (CeramOptec Industries, Inc., priority 2003, published 2005).

Test system: Streptococcus mutans DSM6178 (ATCC 35668)
Test: Photodynamic inactivation of bacterial cell suspensions of Streptococcus mutans by Erythrosin B gel
Assay type: cell-based
Settings: in saliva; general statement
Protocol: Photodynamic Inactivation of Bacterial Cell Suspensions of Streptococcus mutans by Erythrosin B: The organism used in this study was Streptococcus mutans DSM6178 (ATCC 35668). Gram-positive Streptococcus spec. are jointly responsible for the development of oral caries. Streptococcus mutans cells were grown aerobically overnight at 37° C. in Tryptic Soy Broth (Merck KGaA Darmstadt, Germany). Cells were harvested by centrifugation and resuspended in sterile phosphate-buffered saline (PBS) supplemented with 10% sterile filtered natural saliva. The final OD (Optical Density) at 600 nm, for a 1 cm path length, in all cases was 0.05. About 0.5 ml of an Erythrosin B gel of hydroxyethyl cellulose (1 mM, 2 mM, 3 mM and 8 mM Erythrosin B) were placed at the bottom of a tube. The gel was layered with 0.5 ml of the bacterial suspension and exposed for 1, 3 or 5 minutes, respectively under slight shaking at room temperature. After exposure 250 μl of the suspension was placed in a new tube, the tube was centrifuged, the supernatant was removed and the cell pellet was resuspended in 250 μl of PBS+10% natural saliva (sterile filtered). […] The fluence rate for these settings was about 0.1 W/cm^2 (measured with Optometer P-9710, Gigahertz-Optik GmbH, Puchheim, Germany). […]

O.O=C([O-])c1ccccc1-c1c2cc(I)c(=O)c(I)c-2oc2c(I)c([O-])c(I)cc12.[Na+].[Na+] [Erythrosin B]
photosensitizing effectiveness against Gram-positive bacteria: effective photosensitizing substance against Gram-positive bacteria in saliva
